Measured values: BindingDB's records for doi:10.1021/acs.jmedchem.7b01449 (University of Antwerp, 2018)

Legend:
[1] = Inhibition of RIPK1 in mouse L929sA cells transfected with human Fas assessed as inhibition in TNF-induced necroptosis pretreated for 24 hrs followed by TNF and zVAD.fmk addition measured after 3 hrs by Hoechst 33342/propidium iodide staining-based assay
[2] = Inhibition of RIPK1 in mouse L929sA cells transfected with human Fas assessed as inhibition in TNF-induced necroptosis pretreated for 0.5 hrs followed by TNF and zVAD.fmk addition measured after 3 hrs by Hoechst 33342/propidium iodide staining-based assay
[3] = Inhibition of RIPK1 in mouse L929sA cells transfected with human Fas assessed as inhibition in TNF-induced necroptosis pretreated for 24 hrs followed by TNF and zVAD.fmk addition measured after 3 hrs by Hoechst 33342/propidium iodide staining-based assay; remark: listed apart in the source
[4] = target: T1, Receptor-interacting serine/threonine-protein kinase 1 (Mus musculus, UniProt Q60855); assay: (§1) Inhibition of RIPK1 in mouse L929sA cells transfected with human Fas assessed as inhibition in TNF-induced necroptosis pretreated for 24 hrs followed by TNF and zVAD.fmk addition measured after 3 hrs by Hoechst 33342/propidium iodide staining-based assay
T1 sequence (Q60855 whole entry): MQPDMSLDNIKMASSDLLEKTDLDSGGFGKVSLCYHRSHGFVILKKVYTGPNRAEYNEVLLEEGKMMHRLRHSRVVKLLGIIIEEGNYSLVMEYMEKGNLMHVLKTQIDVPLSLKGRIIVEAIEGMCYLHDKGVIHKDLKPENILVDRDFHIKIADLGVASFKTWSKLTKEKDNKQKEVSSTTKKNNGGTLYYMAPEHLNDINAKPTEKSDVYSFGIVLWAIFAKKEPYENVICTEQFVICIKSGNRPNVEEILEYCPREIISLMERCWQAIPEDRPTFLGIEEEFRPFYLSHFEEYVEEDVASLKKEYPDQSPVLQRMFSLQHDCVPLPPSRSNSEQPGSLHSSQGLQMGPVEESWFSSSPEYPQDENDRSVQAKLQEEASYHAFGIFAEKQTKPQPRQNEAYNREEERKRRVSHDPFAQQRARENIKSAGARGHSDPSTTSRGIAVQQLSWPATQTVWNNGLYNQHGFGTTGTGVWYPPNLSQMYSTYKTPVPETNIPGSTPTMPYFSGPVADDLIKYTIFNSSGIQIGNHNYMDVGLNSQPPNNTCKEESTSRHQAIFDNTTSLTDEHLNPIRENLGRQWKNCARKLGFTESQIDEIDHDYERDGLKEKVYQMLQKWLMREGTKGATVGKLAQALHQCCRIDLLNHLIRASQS

[5] = target: T1, Receptor-interacting serine/threonine-protein kinase 1; assay: ChEBML_1697666
Description: as §1

[6] = Inhibition of RIPK1 in mouse L929sA cells transfected with human Fas assessed as inhibition in TNF-induced necroptosis pretreated for 0.5 hrs followed by TNF and zVAD.fmk addition measured after 3 hrs by Hoechst 33342/propidium iodide staining-based assay; remark: listed apart in the source

Compound | IC50 [1] [µM] | IC50 [2] [µM] | other results
Cc1[nH]nc(Nc2nc(Sc3ccc(NC(=O)C4CC4)cc3)nc(N3CCN(C)CC3)n2)c1C | > 3 | – | –
Cc1cc(Nc2nc(Sc3ccc(NC(=O)C4CCCCC4)cc3)nc(N3CCN(C)CC3)n2)n[nH]1 | – | > 3 | IC50 [3]: > 3 µM
Cc1cc(Nc2cc(N3CCOCC3)nc(Nc3ccc(NC(=O)C4CCCCC4)cc3)n2)n[nH]1 | 1.5 | 0.64 | –
Cc1[nH]nc(Nc2nc(Nc3ccc(NC(=O)C4CC4)cc3)nc(N3CCOCC3)n2)c1C | – | > 3 | IC50 [3]: > 3 µM
Cc1cc(Nc2cc(N3CCOCC3)nc(Sc3ccc(NC(=O)C4CCCCC4)cc3)n2)n[nH]1 | – | 0.38 | IC50 [3]: 0.36 µM
Cc1cc(Nc2nc(Sc3ccc(NC(=O)C4CC4)cc3)nc(N3CCN(C)CC3)n2)n[nH]1 | 1.14 | > 3 | –
Cc1[nH]nc(Nc2cc(N3CCCCC3)nc(Sc3ccc(NC(=O)C4CCCCC4)cc3)n2)c1C | > 3 | – | –
Cc1[nH]nc(Nc2cc(N3CCOCC3)nc(Sc3ccc(NC(=O)C4CCCCC4)cc3)n2)c1C | – | > 3 | IC50 [3]: > 3 µM
Cc1[nH]nc(Nc2cc(N3CCOCC3)nc(Nc3ccc(NC(=O)C4CCCCC4)cc3)n2)c1C | > 3 | > 3 | –
Cc1[nH]nc(Nc2cc(N3CCOCC3)nc(Nc3ccc(NC(=O)C4CC4)cc3)n2)c1C | > 3 | > 3 | –
Cc1[nH]nc(Nc2nc(Nc3ccc(NC(=O)C4CCCCC4)cc3)nc(N3CCN(C)CC3)n2)c1C | – | – | IC50 [4]: > 3 µM
Cc1cc(Nc2cc(N3CCCCC3)nc(Nc3ccc(NC(=O)C4CC4)cc3)n2)n[nH]1 | 0.68 | 0.53 | –
CCN1CCN(c2cc(Nc3n[nH]c(C)c3C)nc(Sc3ccc(NC(=O)C4CC4)cc3)n2)CC1 | > 3 | > 3 | –
Cc1cc(Nc2nc(Nc3ccc(NC(=O)C4CCCCC4)cc3)nc(N3CCCCC3)n2)n[nH]1 | > 3 | > 3 | –
Cc1[nH]nc(Nc2nc(Sc3ccc(NC(=O)C4CCCCC4)cc3)nc(N3CCN(C)CC3)n2)c1C | – | – | IC50 [4]: > 3 µM
Cc1cc(Nc2cc(N3CCCCC3)nc(Nc3ccc(NC(=O)C4CCCCC4)cc3)n2)n[nH]1 | 1.94 | – | IC50 [5]: > 3 µM
Cc1[nH]nc(Nc2nc(Sc3ccc(NC(=O)C4CCCCC4)cc3)nc(N3CCCCC3)n2)c1C | – | – | IC50 [4]: > 3 µM
Cc1cc(Nc2nc(Sc3ccc(NC(=O)C4CC4)cc3)nc(N3CCOCC3)n2)n[nH]1 | 1.45 | – | IC50 [6]: 0.7 µM
Cc1[nH]nc(Nc2cc(N3CCN(C)CC3)nc(Sc3ccc(NC(=O)C4CCCCC4)cc3)n2)c1C | > 3 | > 3 | –
Cc1[nH]nc(Nc2cc(N3CCN(C)CC3)nc(Nc3ccc(NC(=O)C4CCCCC4)cc3)n2)c1C | – | – | IC50 [3]: > 3 µM
Cc1[nH]nc(Nc2nc(Sc3ccc(NC(=O)C4CC4)cc3)nc(N3CCOCC3)n2)c1C | > 3 | – | –
Cc1cc(Nc2nc(Sc3ccc(NC(=O)C4CC4)cc3)nc(N3CCCCC3)n2)n[nH]1 | > 3 | > 3 | –

Compound | IC50 [1] [µM] | IC50 [2] [µM] | other results
Cc1cc(Nc2nc(Sc3ccc(NC(=O)C4CCCCC4)cc3)nc(N3CCCCC3)n2)n[nH]1 | > 3 | > 3 | –
Cc1cc(Nc2cc(N3CCCCC3)nc(Sc3ccc(NC(=O)C4CCCCC4)cc3)n2)n[nH]1 | 5.04 | 1.75 | –
Cc1cc(Nc2cc(N3CCN(C)CC3)nc(Sc3ccc(NC(=O)C4CCCCC4)cc3)n2)n[nH]1 | – | – | IC50 [4]: > 3 µM
Cc1cc(Nc2nc(Nc3ccc(NC(=O)C4CC4)cc3)nc(N3CCN(C)CC3)n2)n[nH]1 | > 3 | > 3 | –
Cc1cc(Nc2cc(N3CCOCC3)nc(Sc3ccc(NC(=O)C4CC4)cc3)n2)n[nH]1 | 0.81 | 0.39 | –
Cc1[nH]nc(Nc2nc(Nc3ccc(NC(=O)C4CC4)cc3)nc(N3CCN(C)CC3)n2)c1C | – | > 3 | IC50 [3]: > 3 µM
Cc1cc(Nc2nc(Nc3ccc(NC(=O)C4CCCCC4)cc3)nc(N3CCOCC3)n2)n[nH]1 | – | > 3 | IC50 [3]: > 3 µM
Cc1[nH]nc(Nc2nc(Sc3ccc(NC(=O)C4CCCCC4)cc3)nc(N3CCOCC3)n2)c1C | – | – | IC50 [3]: > 3 µM
Cc1[nH]nc(Nc2nc(Nc3ccc(NC(=O)C4CCCCC4)cc3)nc(N3CCCCC3)n2)c1C | – | – | IC50 [4]: > 3 µM
Cc1cc(Nc2nc(Nc3ccc(NC(=O)C4CC4)cc3)nc(N3CCCCC3)n2)n[nH]1 | – | – | IC50 [5]: > 3 µM
Cc1cc(Nc2nc(Sc3ccc(NC(=O)C4CCCCC4)cc3)nc(N3CCOCC3)n2)n[nH]1 | – | > 3 | IC50 [3]: 1.63 µM
Cc1[nH]nc(Nc2nc(Nc3ccc(NC(=O)C4CC4)cc3)nc(N3CCCCC3)n2)c1C | – | > 3 | IC50 [3]: > 3 µM
Cc1[nH]nc(Nc2nc(Nc3ccc(NC(=O)C4CCCCC4)cc3)nc(N3CCOCC3)n2)c1C | – | – | IC50 [4]: > 3 µM
Cc1cc(Nc2nc(Nc3ccc(NC(=O)C4CCCCC4)cc3)nc(N3CCN(C)CC3)n2)n[nH]1 | > 3 | – | –
Cc1[nH]nc(Nc2cc(N3CCN(C)CC3)nc(Nc3ccc(NC(=O)C4CC4)cc3)n2)c1C | > 3 | > 3 | –
Cc1cc(Nc2cc(N3CCN(C)CC3)nc(Nc3ccc(NC(=O)C4CCCCC4)cc3)n2)n[nH]1 | 1.75 | 0.91 | –
Cc1cc(Nc2nc(Nc3ccc(NC(=O)C4CC4)cc3)nc(N3CCOCC3)n2)n[nH]1 | 2.64 | – | IC50 [6]: 1.06 µM
Cc1[nH]nc(Nc2nc(Sc3ccc(NC(=O)C4CC4)cc3)nc(N3CCCCC3)n2)c1C | > 3 | – | –
Cc1cc(Nc2cc(N3CCN(C)CC3)nc(Nc3ccc(NC(=O)C4CC4)cc3)n2)n[nH]1 | 0.64 | – | IC50 [6]: 1.04 µM
Cc1cc(Nc2cc(N3CCCCC3)nc(Sc3ccc(NC(=O)C4CC4)cc3)n2)n[nH]1 | 1.74 | – | –
Cc1[nH]nc(Nc2cc(N3CCCCC3)nc(Nc3ccc(NC(=O)C4CC4)cc3)n2)c1C | – | – | IC50 [4]: > 3 µM
Cc1[nH]nc(Nc2cc(N3CCCCC3)nc(Nc3ccc(NC(=O)C4CCCCC4)cc3)n2)c1C | – | > 3 | IC50 [3]: > 3 µM
